From the NIST ThermoML archive (doi:10.1016/j.jct.2011.12.019)
± gives the expanded uncertainty stated by the source.

Assay: molar enthalpy of vaporization or sublimation
Settings: 298.15 K, drop calorimetry

Row | molar enthalpy (Crystal) | molar enthalpy (Liquid) | SMILES
1 | 18.7 ± 0.765 kcal/mol |  | Cc1ccc(C#N)n1C [1,5-dimethyl-2-pyrrolecarbonitrile]
2 |  | 15.6 ± 0.669 kcal/mol | N#Cc1ccc[nH]1 [2-cyanopyrrole;]
